Data published in publication PMC10313671, “Accelerating the prediction and discovery of peptide hydrogels with human-in-the-loop” (Nature Communications, 2023).
Where a SMILES comes first, the peptide text is derived from it.

How the values were obtained:
[1] = Transmission electron microscope (negative staining) of peptide assemblies; settings: for Morphology: TEM, negative staining with uranyl acetate, 120 kV; for morphology by TEM (in words): aqueous solution or hydrogel, negative staining
Method: We used the negative staining technique to observe the morphologies formed by peptides. A micropipette was used to load 10 μL of sample solution to a carbon-coated copper grid, and we used a piece of filter paper to remove the excess solution. After rinsing the grid with the deionized water, we used uranyl acetate to stain the sample for 1 minute and then rinsed the grid with deionized water again.

[2] = Peptide hydrogel formation, vial-inverting method; type: physicochemical; set-up: key to EXP / GELATION: 0: no hydrogel; 1: hydrogel; settings: for State: ultrasonication, standing 48 h; for Concentration: concentration at which the state was recorded: lowest of 30, 60, 90, 120 mM that gave a gel, 120 mM for non-gelating peptides; for GELATION: 1 = hydrogel, 0 = no hydrogel
Method: After validating the efficiency of APHC in predicting tetrapeptide hydrogels, we detailed the phase state of 165 synthesized tetrapeptides and the observed assembly behavior in an aqueous solution.
This work defines hydrogel formation as a self-supporting, non-flowing mixture of water and hydrogelator by the vial-inverting method. All purified tetrapeptides were dissolved in ultrapure water (to form a 30 mM solution initially), followed by the stepwise addition of 1 N NaOH solution to adjust the overall aqueous pH to 6.5–8.5. Meanwhile, a short-term ultrasonication treatment was applied after each pH adjustment to facilitate peptide solubilization and speed up peptide self-assembly. […] The mixture was allowed to stand in for another 48 h for complete hydrogelation. Upon the absence of gelation phenomenon during the aforementioned loops, we increased the peptide concentration (60 mM, 90 mM, and 120 mM were selected) and re-started such gelation operation loop to explore their gelation feasibility.

[3] = 120 mM peptide (highest tested) in ultrapure water, pH 6.5-8.5 (1 N NaOH), vial-inverting method, precipitate, sol, suspension = no gel
[4] = peptide concentration 120 mM, vial-inverting method
[5] = 30 mM peptide in ultrapure water, pH adjusted to 6.5-8.5 with 1 N NaOH, vial-inverting method, concentration raised 30/60/90/120 mM until gelation
[6] = peptide concentration 30 mM, vial-inverting method
[7] = 60 mM peptide in ultrapure water, pH 6.5-8.5 (1 N NaOH), vial-inverting method, no gel at 30 mM
[8] = peptide concentration 60 mM, vial-inverting method

SMILES | Morphology ([1]; line of the table gives 120 mM) | State [2, 3] | Concentration [2] [µM] | GELATION [2, 4] | also measured
C[C@H](N)C(=O)N[C@@H](C)C(=O)N[C@@H](C)C(=O)N[C@@H](C)C(=O)O [AAAA] (H-AAAA-OH) | blank | sol | 120000 | 0 | –
CC[C@H](C)[C@H](NC(=O)[C@@H](NC(=O)[C@H](C)N)C(C)C)C(=O)N[C@@H](CCC(N)=O)C(=O)O [AVIQ] (H-AVIQ-OH) | aggregates | suspension | 120000 | 0 | –
C[C@H](NC(=O)[C@@H](N)CS)C(=O)N[C@@H](Cc1ccc(O)cc1)C(=O)N[C@@H](Cc1c[nH]c2ccccc12)C(=O)O [CAYW] (H-CAYW-OH) | aggregates | precipitate | 120000 | 0 | –
CC(C)C[C@H](NC(=O)[C@H](Cc1ccccc1)NC(=O)[C@@H](N)CS)C(=O)N[C@@H](Cc1c[nH]c2ccccc12)C(=O)O [CFLW] (H-CFLW-OH) | aggregates | suspension | 120000 | 0 | –
N[C@@H](CS)C(=O)N[C@@H](Cc1c[nH]cn1)C(=O)N[C@@H](Cc1ccccc1)C(=O)N[C@@H](Cc1c[nH]c2ccccc12)C(=O)O [CHFW] (H-CHFW-OH) | – | – | 30000 | – | Morphology ([1]; line of the table gives 30 mM): sphere; State [2, 5]: gel; GELATION [2, 6]: 1
CC[C@H](C)[C@H](NC(=O)[C@@H](N)CS)C(=O)N[C@@H](Cc1ccc(O)cc1)C(=O)N[C@@H](Cc1ccccc1)C(=O)O [CIYF] (H-CIYF-OH) | – | – | 60000 | – | Morphology ([1]; line of the table gives 60 mM): fibre; State [2, 7]: gel; GELATION [2, 8]: 1
C[C@@H](O)[C@H](NC(=O)[C@@H](N)CS)C(=O)N[C@@H](Cc1ccc(O)cc1)C(=O)N[C@@H](Cc1ccccc1)C(=O)O [CTYF] (H-CTYF-OH) | – | – | 30000 | – | Morphology ([1]; line of the table gives 30 mM): fibre; State [2, 5]: gel; GELATION [2, 6]: 1
N[C@@H](CS)C(=O)N[C@@H](Cc1c[nH]c2ccccc12)C(=O)N[C@@H](Cc1ccccc1)C(=O)N[C@@H](CO)C(=O)O [CWFS] (H-CWFS-OH) | – | – | 30000 | – | Morphology ([1]; line of the table gives 30 mM): fibre; State [2, 5]: gel; GELATION [2, 6]: 1
C[C@@H](O)[C@H](NC(=O)[C@H](Cc1ccccc1)NC(=O)[C@H](Cc1c[nH]c2ccccc12)NC(=O)[C@@H](N)CS)C(=O)O [CWFT] (H-CWFT-OH) | aggregates | suspension | 120000 | 0 | –
N[C@@H](CS)C(=O)N[C@@H](Cc1c[nH]c2ccccc12)C(=O)N[C@@H](Cc1c[nH]cn1)C(=O)N[C@@H](Cc1ccc(O)cc1)C(=O)O [CWHY] (H-CWHY-OH) | aggregates | gel | 120000 | 1 | –
CC(C)C[C@H](NC(=O)[C@H](C)NC(=O)[C@@H](N)CC(=O)O)C(=O)N[C@H](C(=O)O)C(C)C [DALV] (H-DALV-OH) | aggregates | suspension | 120000 | 0 | –
N[C@@H](CC(=O)O)C(=O)N[C@@H](CC(=O)O)C(=O)N[C@@H](CC(=O)O)C(=O)N[C@@H](CC(=O)O)C(=O)O [DDDD] (H-DDDD-OH) | sphere | sol | 120000 | 0 | –
CC(C)[C@H](NC(=O)[C@@H](N)CC(=O)O)C(=O)N[C@@H](Cc1ccccc1)C(=O)N[C@@H](Cc1c[nH]c2ccccc12)C(=O)O [DVFW] (H-DVFW-OH) | – | – | 30000 | – | Morphology ([1]; line of the table gives 30 mM): fibre; State [2, 5]: gel; GELATION [2, 6]: 1
NCCCC[C@H](NC(=O)[C@H](CCCCN)NC(=O)[C@H](CCC(=O)O)NC(=O)[C@@H](N)CCC(=O)O)C(=O)O [EEKK] (H-EEKK-OH) | blank | sol | 120000 | 0 | –
NCCCC[C@H](NC(=O)[C@H](Cc1ccccc1)NC(=O)[C@H](Cc1ccccc1)NC(=O)[C@@H](N)CCC(=O)O)C(=O)O [EFFK] (H-EFFK-OH) | aggregates | sol | 120000 | 0 | –
C[C@H](NC(=O)[C@@H](N)Cc1ccccc1)C(=O)N[C@@H](Cc1ccccc1)C(=O)N1CCC[C@H]1C(=O)O [FAFP] (H-FAFP-OH) | particle | suspension | 120000 | 0 | –

SMILES | Morphology ([1]; line of the table gives 120 mM) | State [2, 3] | Concentration [2] [µM] | GELATION [2, 4] | also measured
N[C@@H](Cc1ccccc1)C(=O)N[C@@H](CS)C(=O)N[C@@H](Cc1c[nH]c2ccccc12)C(=O)N[C@@H](Cc1c[nH]c2ccccc12)C(=O)O [FCWW] (H-FCWW-OH) | aggregates | gel | 120000 | 1 | –
N[C@@H](Cc1ccccc1)C(=O)N[C@@H](Cc1ccccc1)C(=O)N[C@@H](Cc1ccccc1)C(=O)N[C@@H](Cc1ccccc1)C(=O)O [FFFF] (H-FFFF-OH) | – | – | 30000 | – | Morphology ([1]; line of the table gives 30 mM): sheet; State [2, 5]: gel; GELATION [2, 6]: 1
N[C@@H](Cc1ccccc1)C(=O)N[C@@H](Cc1ccccc1)C(=O)N[C@@H](Cc1ccc(O)cc1)C(=O)N[C@@H](Cc1ccc(O)cc1)C(=O)O [FFYY] (H-FFYY-OH) | – | – | 30000 | – | Morphology ([1]; line of the table gives 30 mM): needle; State [2, 5]: gel; GELATION [2, 6]: 1
N[C@@H](Cc1ccccc1)C(=O)NCC(=O)N[C@@H](Cc1c[nH]c2ccccc12)C(=O)N[C@@H](Cc1c[nH]c2ccccc12)C(=O)O [FGWW] (H-FGWW-OH) | sphere | precipitate | 120000 | 0 | morphology by TEM (in words) [1]: aggregates with different sizes
CC(C)C[C@H](NC(=O)[C@H](Cc1c[nH]cn1)NC(=O)[C@@H](N)Cc1ccccc1)C(=O)N[C@@H](Cc1ccccc1)C(=O)O [FHLF] (H-FHLF-OH) | – | – | 30000 | – | Morphology ([1]; line of the table gives 30 mM): sheet; State [2, 5]: gel; GELATION [2, 6]: 1
NCCCC[C@H](NC(=O)[C@@H](N)Cc1ccccc1)C(=O)N[C@@H](Cc1ccccc1)C(=O)N[C@@H](Cc1ccccc1)C(=O)O [FKFF] (H-FKFF-OH) | – | – | 60000 | – | Morphology ([1]; line of the table gives 60 mM): sheet; State [2, 7]: gel; GELATION [2, 8]: 1
NCCCC[C@H](NC(=O)[C@@H](N)Cc1ccccc1)C(=O)N[C@@H](Cc1ccccc1)C(=O)N[C@@H](Cc1c[nH]c2ccccc12)C(=O)O [FKFW] (H-FKFW-OH) | – | – | 60000 | – | Morphology ([1]; line of the table gives 60 mM): fibre; State [2, 7]: gel; GELATION [2, 8]: 1
CSCC[C@H](NC(=O)[C@@H](N)Cc1ccccc1)C(=O)N[C@@H](CC(C)C)C(=O)N[C@@H](Cc1ccccc1)C(=O)O [FMLF] (H-FMLF-OH) | – | – | 30000 | – | Morphology ([1]; line of the table gives 30 mM): sheet; State [2, 5]: gel; GELATION [2, 6]: 1
CSCC[C@H](NC(=O)[C@@H](N)Cc1ccccc1)C(=O)N[C@@H](Cc1ccc(O)cc1)C(=O)N[C@@H](CO)C(=O)O [FMYS] (H-FMYS-OH) | aggregates | sol | 120000 | 0 | –
CC(C)[C@H](NC(=O)[C@H](Cc1ccc(O)cc1)NC(=O)[C@H](CO)NC(=O)[C@@H](N)Cc1ccccc1)C(=O)O [FSYV] (H-FSYV-OH) | – | – | 60000 | – | Morphology ([1]; line of the table gives 60 mM): aggregates; State [2, 7]: gel; GELATION [2, 8]: 1
CC[C@H](C)[C@H](NC(=O)[C@@H](NC(=O)[C@@H](N)Cc1ccccc1)C(C)C)C(=O)N[C@@H](Cc1ccc(O)cc1)C(=O)O [FVIY] (H-FVIY-OH) | – | – | 30000 | – | morphology by TEM (in words) [1]: entangled nanofibers; State [2, 5]: gel; GELATION [2, 6]: 1; hydrogel formation (in words) ([2]; vial-inverting method, representative hydrogels pH between 7.0 to 7.5): hydrogels
CC(C)C[C@H](NC(=O)[C@@H](NC(=O)[C@H](Cc1ccccc1)NC(=O)[C@@H](N)CCCCN)C(C)C)C(=O)O [KFVL] (H-KFVL-OH) | – | – | – | 0 | –
CC(C)C[C@H](NC(=O)[C@@H](NC(=O)[C@H](Cc1ccccc1)NC(=O)[C@@H](N)CCCCN)C(C)C)C(=O)O [LYS-PHE-VAL-LEU] (H-KFVL-OH) | – | – | – | – | EXP ([2]; experimental gelation result of the synthesized peptide): 0
C[C@@H](O)[C@H](N)C(=O)N[C@@H](CCC(N)=O)C(=O)N[C@@H](Cc1ccccc1)C(=O)N[C@@H](CO)C(=O)O [TQFS] (H-TQFS-OH) | – | – | – | 0 | –
CC(C)[C@H](N)C(=O)N[C@@H](Cc1ccccc1)C(=O)NCC(=O)N[C@H](C(=O)O)C(C)C [VFGV] (H-VFGV-OH) | – | sol | 120000 | 0 | –
